Assay results as given in US20260184662A1, “COMPOSITE OF ACID AND SALT, AND PREPARATION METHOD THEREFOR” (NANJING NUTRABUILDING BIO-TECH CO., LTD., priority 2022, published 2026).
Like-named read-outs stand apart in the source and are kept apart here.

Assays:
[1] = Stability of complexes at 30-80° C.; assay type: physicochemical
Excerpt: For R-3-hydroxybutyric acid, potassium R-3-hydroxybutyrate, mixture of R-3-hydroxybutyric acid and potassium R-3-hydroxybutyrate, and R-3-hydroxybutyric acid·potassium R-3-hydroxybutyrate complex of Example 1, […]
For 3-hydroxybutyric acid, potassium 3-hydroxybutyrate, mixture of 3-hydroxybutyric acid and potassium 3-hydroxybutyrate, and 3-hydroxybutyric acid·potassium 3-hydroxybutyrate complex of Example 7, […]
For S-3-hydroxybutyric acid, potassium S-3-hydroxybutyrate, mixture of S-3-hydroxybutyric acid and potassium S-3-hydroxybutyrate, and S-3-hydroxybutyric acid·potassium S-3-hydroxybutyrate complex of Example 13, […]
For R-3-hydroxybutyric acid, calcium R-3-hydroxybutyrate, mixture of R-3-hydroxybutyric acid and calcium R-3-hydroxybutyrate, and R-3-hydroxybutyric acid·calcium R-3-hydroxybutyrate complex of Example 19, […]
For 3-hydroxybutyric acid, calcium 3-hydroxybutyrate, mixture of 3-hydroxybutyric acid and calcium 3-hydroxybutyrate, and 3-hydroxybutyric acid·calcium 3-hydroxybutyrate complex of Example 25, […]
For S-3-hydroxybutyric acid, calcium S-3-hydroxybutyrate, mixture of S-3-hydroxybutyric acid and calcium S-3-hydroxybutyrate, and S-3-hydroxybutyric acid·calcium S-3-hydroxybutyrate complex of Example 31, […]
For R-3-hydroxybutyric acid, magnesium R-3-hydroxybutyrate, mixture of R-3-hydroxybutyric acid and magnesium R-3-hydroxybutyrate, and R-3-hydroxybutyric acid·magnesium R-3-hydroxybutyrate complex of Example 37, […]
For 3-hydroxybutyric acid, magnesium 3-hydroxybutyrate, mixture of 3-hydroxybutyric acid and magnesium 3-hydroxybutyrate, and 3-hydroxybutyric acid·magnesium 3-hydroxybutyrate complex of Example 43, […]
For S-3-hydroxybutyric acid, magnesium S-3-hydroxybutyrate, mixture of S-3-hydroxybutyric acid and magnesium S-3-hydroxybutyrate, and S-3-hydroxybutyric acid·magnesium S-3-hydroxybutyrate complex of Example 49, […]
For R-3-hydroxypentanoic acid, sodium R-3-hydroxypentanoate, mixture of R-3-hydroxypentanoic acid and sodium R-3-hydroxypentanoate, and R-3-hydroxypentanoic acid·sodium R-3-hydroxypentanoate complex of Example 55, […]
For 3-hydroxypentanoic acid, sodium 3-hydroxypentanoate, mixture of 3-hydroxypentanoic acid and sodium 3-hydroxypentanoate, and 3-hydroxypentanoic acid·sodium 3-hydroxypentanoate complex of Example 61, […]
For S-3-hydroxypentanoic acid, sodium S-3-hydroxypentanoate, mixture of S-3-hydroxypentanoic acid and sodium S-3-hydroxypentanoate, and S-3-hydroxypentanoic acid·sodium S-3-hydroxypentanoate complex of Example 67, […]

[2] = Determination of moisture contents with KF moisture meter at different time points; assay type: physicochemical; conditions: temperature 23° C., humidity 92.5%
Excerpt: For R-3-hydroxybutyric acid, potassium R-3-hydroxybutyrate, mixture of R-3-hydroxybutyric acid and potassium R-3-hydroxybutyrate, and R-3-hydroxybutyric acid·potassium R-3-hydroxybutyrate complex of Example 1, under a certain condition, KF moisture meter was used to determine the moisture contents at different time points.
For 3-hydroxybutyric acid, potassium 3-hydroxybutyrate, mixture of 3-hydroxybutyric acid and potassium 3-hydroxybutyrate, and 3-hydroxybutyric acid·potassium 3-hydroxybutyrate complex of Example 7, under a certain condition, KF moisture meter was used to determine the moisture contents at different time points.
For S-3-hydroxybutyric acid, potassium S-3-hydroxybutyrate, mixture of S-3-hydroxybutyric acid and potassium S-3-hydroxybutyrate, and S-3-hydroxybutyric acid·potassium S-3-hydroxybutyrate complex of Example 13, under a certain condition, KF moisture meter was used to determine the moisture contents at different time points.
For R-3-hydroxybutyric acid, calcium R-3-hydroxybutyrate, mixture of R-3-hydroxybutyric acid and calcium R-3-hydroxybutyrate, and R-3-hydroxybutyric acid·calcium R-3-hydroxybutyrate complex of Example 19, under a certain condition, KF moisture meter was used to determine the moisture contents at different time points.
For 3-hydroxybutyric acid, calcium 3-hydroxybutyrate, mixture of 3-hydroxybutyric acid and calcium 3-hydroxybutyrate, and 3-hydroxybutyric acid·calcium 3-hydroxybutyrate complex of Example 25, under a certain condition, KF moisture meter was used to determine the moisture contents at different time points.
For S-3-hydroxybutyric acid, calcium S-3-hydroxybutyrate, mixture of S-3-hydroxybutyric acid and calcium S-3-hydroxybutyrate, and S-3-hydroxybutyric acid·calcium S-3-hydroxybutyrate complex of Example 31, under a certain condition, KF moisture meter was used to determine the moisture contents at different time points.
For R-3-hydroxybutyric acid, magnesium R-3-hydroxybutyrate, mixture of R-3-hydroxybutyric acid and magnesium R-3-hydroxybutyrate, and R-3-hydroxybutyric acid·magnesium R-3-hydroxybutyrate complex of Example 37, under a certain condition, KF moisture meter was used to determine the moisture contents at different time points.
For 3-hydroxybutyric acid, magnesium 3-hydroxybutyrate, mixture of 3-hydroxybutyric acid and magnesium 3-hydroxybutyrate, and 3-hydroxybutyric acid·magnesium 3-hydroxy butyrate complex of Example 43, under a certain condition, KF moisture meter was used to determine the moisture contents at different time points.
For S-3-hydroxybutyric acid, magnesium S-3-hydroxybutyrate, mixture of S-3-hydroxybutyric acid and magnesium S-3-hydroxybutyrate, and S-3-hydroxybutyric acid·magnesium S-3-hydroxybutyrate complex of Example 49, under a certain condition, KF moisture meter was used to determine the moisture contents at different time points.
For R-3-hydroxypentanoic acid, sodium R-3-hydroxypentanoate, mixture of R-3-hydroxypentanoic acid and sodium R-3-hydroxypentanoate, and R-3-hydroxypentanoic acid·sodium R-3-hydroxypentanoate complex of Example 55, under a certain condition, KF moisture meter was used to determine the moisture contents at different time points.
For 3-hydroxypentanoic acid, sodium 3-hydroxypentanoate, mixture of 3-hydroxypentanoic acid and sodium 3-hydroxypentanoate, and 3-hydroxypentanoic acid·sodium 3-hydroxypentanoate complex of Example 61, under a certain condition, KF moisture meter was used to determine the moisture contents at different time points.
For S-3-hydroxypentanoic acid, sodium S-3-hydroxypentanoate, mixture of S-3-hydroxypentanoic acid and sodium S-3-hydroxypentanoate, and S-3-hydroxypentanoic acid·sodium S-3-hydroxypentanoate complex of Example 67, under a certain condition, KF moisture meter was used to determine the moisture contents at different time points.

## CC(O)CC(=O)O.CC(O)CC(=O)[O-].CC(O)CC(=O)[O-].[Ca+2] (stereo not shown) [3-hydroxybutyric acid·calcium 3-hydroxybutyrate]
[1]; 30° C.
  Stability: unchanged
[1]; 40° C.
  Stability: unchanged
[1]; 50° C.
  Stability: unchanged
[1]; 60° C.
  Stability: unchanged
[1]; 80° C.
  Stability: melted
[2]; 30 min
  moisture content (%): 0.56%
[2]; 1 h
  moisture content (%): 1.12%
[2]; 2 h
  moisture content (%): 1.86%
[2]; 4 h
  moisture content (%): 3.19%
[2]; 6 h
  moisture content (%): 4.68%
[2]; 7 h
  moisture content (%): 5.45%
[2]; 11 h
  moisture content (%): 8.72%
[2]; 22 h
  moisture content (%): 14.43%

## CC(O)CC(=O)O.CC(O)CC(=O)[O-].CC(O)CC(=O)[O-].[Mg+2] (stereo not shown) [3-hydroxybutyric acid·magnesium 3-hydroxybutyrate]
[1]; 30° C.
  Stability: unchanged
[1]; 40° C.
  Stability: unchanged
[1]; 50° C.
  Stability: unchanged
[1]; 60° C.
  Stability: Unchanged
[1]; 80° C.
  Stability: melted
[2]; 30 min
  moisture content (%): 0.56%
[2]; 1 h
  moisture content (%): 0.97%
[2]; 2 h
  moisture content (%): 1.82%
[2]; 4 h
  moisture content (%): 3.26%
[2]; 6 h
  moisture content (%): 4.62%
[2]; 7 h
  moisture content (%): 5.57%
[2]; 11 h
  moisture content (%): 8.75%
[2]; 22 h
  moisture content (%): 14.68%

## CC(O)CC(=O)O.CC(O)CC(=O)[O-].[K+] (stereo not shown) [3-hydroxybutyric acid·potassium 3-hydroxybutyrate]
[1]; 30° C.
  Stability: unchanged
[1]; 40° C.
  Stability: unchanged
[1]; 50° C.
  Stability: Unchanged
[1]; 60° C.
  Stability: unchanged
[1]; 80° C.
  Stability: melted
[2]; 30 min
  moisture content (%): 0.68%
[2]; 1 h
  moisture content (%): 1.28%
[2]; 2 h
  moisture content (%): 1.93%
[2]; 4 h
  moisture content (%): 3.68%
[2]; 6 h
  moisture content (%): 5.92%
[2]; 7 h
  moisture content (%): 6.84%
[2]; 11 h
  moisture content (%): 9.67%
[2]; 22 h
  moisture content (%): 19.25%

## CCC(O)CC(=O)O.CCC(O)CC(=O)[O-].[Na+] (stereo not shown) [3-hydroxypentanoic acid·sodium 3-hydroxypentanoate]
[1]
  Stability: unchanged
[2]; 30 min
  moisture content (%): 0.51%
[2]; 1 h
  moisture content (%): 0.98%
[2]; 2 h
  moisture content (%): 1.71%
[2]; 4 h
  moisture content (%): 2.82%
[2]; 6 h
  moisture content (%): 4.16%
[2]; 7 h
  moisture content (%): 4.60%
[2]; 11 h
  moisture content (%): 7.28%
[2]; 22 h
  moisture content (%): 14.69%

## C[C@@H](O)CC(=O)O.C[C@@H](O)CC(=O)[O-].C[C@@H](O)CC(=O)[O-].[Ca+2] [R-3-hydroxybutyric acid·calcium R-3-hydroxybutyrate]
[1]; 30° C.
  Stability: unchanged
[1]; 40° C.
  Stability: unchanged
[1]; 50° C.
  Stability: unchanged
[1]; 60° C.
  Stability: unchanged
[1]; 80° C.
  Stability: melted
[2]; 30 min
  moisture content (%): 0.54%
[2]; 1 h
  moisture content (%): 1.02%
[2]; 2 h
  moisture content (%): 1.96%
[2]; 4 h
  moisture content (%): 3.26%
[2]; 6 h
  moisture content (%): 4.79%
[2]; 7 h
  moisture content (%): 5.39%
[2]; 11 h
  moisture content (%): 8.65%
[2]; 22 h
  moisture content (%): 14.45%

## C[C@@H](O)CC(=O)O.C[C@@H](O)CC(=O)[O-].C[C@@H](O)CC(=O)[O-].[Mg+2] [R-3-hydroxybutyric acid·magnesium R-3-hydroxybutyrate]
[1]; 30° C.
  Stability: unchanged
[1]; 40° C.
  Stability: unchanged
[1]; 50° C.
  Stability: unchanged
[1]; 60° C.
  Stability: unchanged
[1]; 80° C.
  Stability: melted
[2]; 30 min
  moisture content (%): 0.57%
[2]; 1 h
  moisture content (%): 0.92%
[2]; 2 h
  moisture content (%): 1.76%
[2]; 4 h
  moisture content (%): 3.16%
[2]; 6 h
  moisture content (%): 4.59%
[2]; 7 h
  moisture content (%): 5.69%
[2]; 11 h
  moisture content (%): 8.65%
[2]; 22 h
  moisture content (%): 14.45%

## C[C@@H](O)CC(=O)O.C[C@@H](O)CC(=O)[O-].[K+] [R-3-hydroxybutyric acid·potassium R-3-hydroxybutyrate]
[1]; 30° C.
  Stability: unchanged
[1]; 40° C.
  Stability: unchanged
[1]; 50° C.
  Stability: unchanged
[1]; 60° C.
  Stability: unchanged
[1]; 80° C.
  Stability: melted
[2]; 30 min
  moisture content (%): 0.64%
[2]; 1 h
  moisture content (%): 1.24%
[2]; 2 h
  moisture content (%): 1.89%
[2]; 4 h
  moisture content (%): 3.66%
[2]; 6 h
  moisture content (%): 5.89%
[2]; 7 h
  moisture content (%): 6.78%
[2]; 11 h
  moisture content (%): 9.77%
[2]; 22 h
  moisture content (%): 19.45%

## CC[C@@H](O)CC(=O)O [R-3-hydroxypentanoic acid]
[2]; 30 min
  moisture content (%): 0.94%
[2]; 1 h
  moisture content (%): 1.88%
[2]; 2 h
  moisture content (%): 3.30%
[2]; 4 h
  moisture content (%): 5.38%
[2]; 6 h
  moisture content (%): 7.93%
[2]; 7 h
  moisture content (%): 8.80%
[2]; 11 h
  moisture content (%): 14.35%
[2]; 22 h
  moisture content (%): 27.78%

## CC[C@H](O)CC(=O)O [S-3-hydroxypentanoic acid]
[2]; 30 min
  moisture content (%): 1.03%
[2]; 1 h
  moisture content (%): 1.90%
[2]; 2 h
  moisture content (%): 3.38%
[2]; 4 h
  moisture content (%): 5.27%
[2]; 6 h
  moisture content (%): 7.94%
[2]; 7 h
  moisture content (%): 8.85%
[2]; 11 h
  moisture content (%): 14.23%
[2]; 22 h
  moisture content (%): 27.46%
